Measured values taken from publication PMC11811597, “Phenomics‐Based Discovery of Novel Orthosteric Choline Kinase Inhibitors” (Angewandte Chemie (International Ed. in English), 2025).

Columns and labels:
[1] = tested on: MCF7, MDA‐MB‐231, HEK293, HepG2, U2OS and K562 cells; test: 72 h cell viability assay (Cell Titer-Glo); format: cell-based, human; conditions: 0-50 μM
Text: We compared morphological fingerprints of multiple parameters to assess overall biological similarity (Biol. Sim.) (Figure 1B).
A-366 and UNC0638 were purchased from Tocris. ARIAD and V-11-07-11 were purchased from Wuxi Apptec. UNC0737 and UNC0965 were synthesised as previously described.[1] Hemicholinium-3 and pyruvate kinase/lactic dehydrogenase enzymes were purchased from Sigma Aldrich. Aqueous and organic solvents were MS-grade and acquired by Sigma Aldrich unless stated otherwise.
MDA-MB-231, MCF7 and HEK293 cells were cultured in DMEM (Gibco, #11965092) supplemented with 10% FBS. K562 were cultured in IMDM (Gibco, #12440053) supplemented with 10% FBS. HepG2 were cultured in MEM (Gibco, #11095080) supplemented with 10 % FBS. […]
cultured in McCoy’s 5A (Sigma, M8403) supplemented with 10 % FBS and 1x GlutaMAX (Gibco, #35050061). Cells were maintained at 37 °C in a humidified 5% CO2 atmosphere. Peripheral blood mononuclear cells (PBMC) were isolated from healthy blood donors by density centrifugation.
MDA-MB-231, MCF7 or HEK293 cells (7.5 × 10^4 cells/mL) were each plated into x1 white 384-well polystyrene plate (Greiner Bio-One Ltd). A-366, […] and UNC0737 were directly added to each well of the cell line plates, at final concentrations 0-50 μM and incubated for 72 h at 37 °C/ 5% CO2.
Cell Titer-Glo® reagent was added to each well and total luminescence readings were performed within 15 min using the PHERAstar FSX (BMG Labtech). The cell viability results were normalised to the DMSO control and plotted using the sigmoidal dose-response (variable slope) equation in […]
Chemical Proteomics Drug Pulldown
For lysate generation MCF7 cells were grown until approximately 80% confluency before being pelleted and washed with PBS. […]
MDA-MB-231, […], HepG2, U2OS and K562 cells following treatment with A-366, UNC0638 and UNC0737 after 72 h measured by Cell Titer Glo assay (n=3). […]

CHKA [2] = target: T1, CHKA (Homo sapiens, UniProt P35790); test: Differential scanning fluorimetry (DSF); format: binding; set-up: host or cells: E. coli BL21(DE3); conditions: 10 µM compound, 2 µM CHKA
T1 sequence (P35790 75-457 limits assumed): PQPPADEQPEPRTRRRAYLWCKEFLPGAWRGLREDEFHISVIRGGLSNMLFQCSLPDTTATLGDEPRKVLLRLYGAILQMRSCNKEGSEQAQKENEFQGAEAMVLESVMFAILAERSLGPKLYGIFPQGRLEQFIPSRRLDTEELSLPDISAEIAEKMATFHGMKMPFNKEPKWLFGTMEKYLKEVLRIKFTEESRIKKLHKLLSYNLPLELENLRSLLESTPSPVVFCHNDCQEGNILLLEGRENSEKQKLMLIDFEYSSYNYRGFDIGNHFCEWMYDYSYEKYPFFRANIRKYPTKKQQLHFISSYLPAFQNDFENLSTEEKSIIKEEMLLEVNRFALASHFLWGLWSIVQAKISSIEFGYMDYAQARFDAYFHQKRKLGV
Method: mM NaCl, 5% glycerol, 500 mM imidazole, 0.5% TCEP, pH 7.5), the eluent was concentrated, and further purified by size exclusion chromatography using a HiLoad 16/600 Superdex S200 column (Cytiva) pre-equilibrated in Buffer C (20 mM HEPES, 150 mM NaCl, pH 7.5). The resulting protein purity was assessed by SDS-PAGE, and protein identity was confirmed by tryptic digest analysis. Protein concentration was determined to be 35.5 mg/mL, and was calculated using a theoretical molar extinction coefficient of 58830 M-1cm-1 as determined by ProtParam.[5] […]
Differential Scanning Fluorimetry (DSF)
DSF buffer (20 mM HEPES, 150 mM NaCl, 0.5 mM TCEP, pH 7.5) containing 5x SYPRO Orange (Thermo Fisher Scientific) and CHKA (2 µM) was incubated with 10 µM compound at 2% DMSO final concentration in a 96-well semi-skirted real time PCR plate. Fluorescence was measured in each well over a 40-80 °C gradient using a Stratagen MX3005p qPCR instrument (Agilent Technologies). […]

[3] = tested on: primary human cell‐based tissue and disease models; test: BioMAP Diversity PLUS panel; conditions: 12 systems, Pearson's correlation >0.7
Text: Having confirmed that UNC0638 and UNC0737 are potent bona fide CHKA inhibitors, we next turned our attention to further investigate the role of CHKA in cellular signalling. While CHKA has been studied extensively in the context of malignant disease, there has been a growing acknowledgment of its relevance in immune metabolism.[9, 10] […] We profiled UNC0638 and UNC0737 alongside the orthogonal CHKA inhibitors V‐11‐0711 and ARIAD against the BioMAP Diversity PLUS panel (Figures S7).[24] This set comprises 148 distinct biomarkers across 12 systems, including panels for systemic immune responses. […] The decrease in IgG secretion was accompanied by a reduction in stimulation‐induced B cell maturation into CD27^+IgD^− memory CD19^+ B cells (Figure 4D). […]
consecutive concentrations change in the same direction relative to vehicle controls, are outside of the significance envelope, and have at least one concentration with an effect size > 20% (|log10ratio| > 0.1). Biomarker key activities are described as modulated if these activities increase in some systems, but decrease in others. Cytotoxicity is indicated on the profile plot by a thin black arrow above the x- […]
Cytotoxicity and antiproliferative arrows only require one concentration to meet the indicated threshold for profile annotation. […]

CHKA [4] = target: T1, CHKA; test: Isothermal calorimetry (ITC); format: binding; set-up: host or cells: E. coli BL21(DE3)
Method: mM NaCl, 5% glycerol, 500 mM imidazole, 0.5% TCEP, pH 7.5), the eluent was concentrated, and further purified by size exclusion chromatography using a HiLoad 16/600 Superdex S200 column (Cytiva) pre-equilibrated in Buffer C (20 mM HEPES, 150 mM NaCl, pH 7.5). The resulting protein purity was assessed by SDS-PAGE, and protein identity was confirmed by tryptic digest analysis. Protein concentration was determined to be 35.5 mg/mL, and was calculated using a theoretical molar extinction coefficient of 58830 M-1cm-1 as determined by ProtParam.[5]
Isothermal Calorimetry (ITC)
ITC experiments were performed in a buffer containing 20 mM HEPES pH 7.5 and 200 mM NaCl, using an VP-ITC microcalorimeter (MicroCal) at 15 °C. The protein concentration was 200 µM and compounds were tested at 20 µM. The titrations were conducted using an initial injection of 4 μL followed by further 29 injections of 8 μL each. Thermodynamic parameters were calculated using ΔG = ΔH − TΔS = −RT ln KB, where ΔG, ΔH, and ΔS are the changes in free energy, enthalpy, and entropy of binding, respectively. Single binding models were employed to fit the data. […]

SMILES | effect on cell viability [1] | thermal stabilisation of CHKA (DSF) (CHKA [2]) | clustering of overall BioMAP responses across all biomarkers [3] | Kd (CHKA [4])
COc1cc2c(cc1OCCCN1CCCC1)N=C(N)C21CCC1 [A‐366] | less efficient in inducing cancer cell death | not | did not exhibit any overlap | –
C[N+]1(C)CCOC(O)(c2ccc(-c3ccc(C4(O)C[N+](C)(C)CCO4)cc3)cc2)C1 (stereo not drawn) [HC3, hemicholinium‐3] | – | – | – | 40.6 nM
COc1cc2c(NC3CCN(C(C)C)CC3)nc(N3CCC(F)(F)CC3)nc2cc1OCCCN1CCCC1 [UNC0642] | – | exhibited CHKA stabilisation albeit to lesser degree than UNC0737 | – | –
COc1cc2nc(N3CCCN(C)CC3)nc(NC3CCN(Cc4ccccc4)CC3)c2cc1OC [BIX‐01294] | – | exhibited CHKA stabilisation albeit to lesser degree than UNC0737 | – | –
